Assay results as given in patent publication US12310975B2, “Modulators of BCL6 proteolysis and associated methods of use” (Arvinas Operations, Inc., priority 2019, dated 2025).
Read-outs that look alike come from different tables or passages of the source.

Target: BCL6 (Homo sapiens (Human), UniProt P41182)
Assay: Immunofluorescence high content imaging of BCL6 degradation in T47D cells
Type: cell-based
Summary of the method: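 Seed T47D in RPMI1640-10% FBS to reach ~70-90% confluence at endpoint; add degrader next day (11-point 3-fold series, top 0.1 or 1 μM final) for 3 days. Then fix, permeabilize, stain BCL6 with nuclear Hoechst, and image.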

CNC(=O)COc1cc2cc(Nc3nc(N4CCC(c5cn(CCOCC(=O)N[C@H](C(=O)N6C[C@H](O)C[C@H]6C(=O)N[C@@H](C)c6ccc(-c7scnc7C)cc6)C(C)(C)C)nn5)CC4)ncc3Cl)ccc2n(C)c1=O [compound 114, (2S,4R)-1-((S)-2-(2-(2-(4-(1-(5-chloro-4-((1-methyl-3-(2-(methylamino)-2-oxoethoxy)-2-oxo-1,2-dihydroquinolin-6-yl)amino)pyrimidin-2-yl)piperidin-4-yl)-1H-1,2,3-triazol-1-yl)ethoxy)acetamido)-3,3-dimethylbutanoyl)-4-hydroxy-N-((S)-1-(4-(4-methylthiazol-5-yl)phenyl)ethyl)pyrrolidine-2-carboxamide]
DC50 (class symbols A-D, read-out: EC50 (nM)*): 50 to 100 nM

CNC(=O)COc1cc2cc(Nc3nc(N4CCC(OC5CCN(c6cccc7c6C(=O)N(C6CCC(=O)NC6=O)C7=O)CC5)CC4)ncc3Cl)ccc2n(C)c1=O (centres unmarked) [compound 264, 2-((6-((5-chloro-2-(4-((1-(2-(2,6-dioxopiperidin-3-yl)-1,3-dioxoisoindolin-4-yl)piperidin-4-yl)oxy)piperidin-1-yl)pyrimidin-4-yl)amino)-1-methyl-2-oxo-1,2-dihydroquinolin-3-yl)oxy)-N-methylacetamide]
IC50: < 10 nM
Dmax (T47D): ≥ 70%

CNC(=O)COc1cc2cc(Nc3nc(N4CC5(CC(OC6CCN(c7ccc8c(c7)C(=O)N(C7CCC(=O)NC7=O)C8=O)CC6)C5)C4)ncc3Cl)ccc2n(C(C)C)c1=O (centres unmarked) [compound 405, 2-{[6-({5-chloro-2-[6-({1-[2-(2,6-dioxopiperidin-3-yl)-1,3-dioxo-2,3-dihydro-1H-isoindol-5-yl]piperidin-4-yl}oxy)-2-azaspiro[3.3]heptan-2-yl]pyrimidin-4-yl}amino)-2-oxo-1-(propan-2-yl)-1,2-dihydroquinolin-3-yl]oxy}-N-methylacetamide]
IC50 (T47D cells): ≥ 100 nM

CCn1c(=O)c(OCC(=O)NC)cc2cc(Nc3nc(N4CCC(OC5CN(C6CN(c7ccc8c(c7)C(=O)N(C7CCC(=O)NC7=O)C8=O)C6)C5)CC4)ncc3Cl)ccc21 (centres unmarked) [compound 328, 2-{[6-({5-chloro-2-[4-({1′-[2-(2,6-dioxopiperidin-3-yl)-1,3-dioxo-2,3-dihydro-1H-isoindol-5-yl]-[1,3′-biazetidin]-3-yl}oxy)piperidin-1-yl]pyrimidin-4-yl}amino)-1-ethyl-2-oxo-1,2-dihydroquinolin-3-yl]oxy}-N-methylacetamide]
Dmax (T47D cells): 50 to 70%
IC50 (T47D cells): < 10 nM

CCOc1cc(N2CCC(CN3CCN(c4ncc(Cl)c(Nc5ccc6c(c5)cc(OCC(=O)NC)c(=O)n6C)n4)CC3)CC2)ccc1C(=O)NC1CCC(=O)NC1=O (centres unmarked) [compound 344, 4-[4-({4-[5-chloro-4-({1-methyl-3-[(methylcarbamoyl)methoxy]-2-oxo-1,2-dihydroquinolin-6-yl}amino)pyrimidin-2-yl]piperazin-1-yl}methyl)piperidin-1-yl]-N-(2,6-dioxopiperidin-3-yl)-2-ethoxybenzamide]
Dmax (T47D cells): < 50%
IC50 (T47D cells): < 10 nM

CCCOc1cc(N2CCC(CN3CCN(c4ncc(Cl)c(Nc5ccc6c(c5)cc(OCC(=O)NC)c(=O)n6C)n4)CC3)CC2)ccc1C(=O)NC1CCC(=O)NC1=O (centres unmarked) [compound 345, 4-[4-({4-[5-chloro-4-({1-methyl-3-[(methylcarbamoyl)methoxy]-2-oxo-1,2-dihydroquinolin-6-yl}amino)pyrimidin-2-yl]piperazin-1-yl}methyl)piperidin-1-yl]-N-(2,6-dioxopiperidin-3-yl)-2-propoxybenzamide]
IC50 (T47D cells): ≥ 100 nM

CNC(=O)COc1cc2cc(Nc3nc(N4CCC(CN5CC6(C5)CN(c5cccc7c5C(=O)N(C5CCC(=O)NC5=O)C7=O)C6)CC4)ncc3Cl)ccc2n(C)c1=O (centres unmarked) [compound 256, 2-((6-((5-chloro-2-(4-((6-(2-(2,6-dioxopiperidin-3-yl)-1,3-dioxoisoindolin-4-yl)-2,6-diazaspiro[3.3]heptan-2-yl)methyl)piperidin-1-yl)pyrimidin-4-yl)amino)-1-methyl-2-oxo-1,2-dihydroquinolin-3-yl)oxy)-N-methylacetamide]
IC50: < 10 nM
Dmax (T47D): 50 to 70%
